The values that follow come from patent US20260191968A1, “PROTAC DEGRADERS OF MLLT1 AND/OR MLLT3” (DARK BLUE THERAPEUTICS LTD, priority 2024, published 2026).

Molecules are shown by their SMILES. A value given as a limit tells only on which side of the number the result lay.

For orientation: IC50 means the concentration at which inhibition is half-maximal.

One assay deals with T1, MLLT1 (Homo sapiens, UniProt Q03111).
T1 construct: host or cells: MV4-11
T1 sequence (Q03111 1-559): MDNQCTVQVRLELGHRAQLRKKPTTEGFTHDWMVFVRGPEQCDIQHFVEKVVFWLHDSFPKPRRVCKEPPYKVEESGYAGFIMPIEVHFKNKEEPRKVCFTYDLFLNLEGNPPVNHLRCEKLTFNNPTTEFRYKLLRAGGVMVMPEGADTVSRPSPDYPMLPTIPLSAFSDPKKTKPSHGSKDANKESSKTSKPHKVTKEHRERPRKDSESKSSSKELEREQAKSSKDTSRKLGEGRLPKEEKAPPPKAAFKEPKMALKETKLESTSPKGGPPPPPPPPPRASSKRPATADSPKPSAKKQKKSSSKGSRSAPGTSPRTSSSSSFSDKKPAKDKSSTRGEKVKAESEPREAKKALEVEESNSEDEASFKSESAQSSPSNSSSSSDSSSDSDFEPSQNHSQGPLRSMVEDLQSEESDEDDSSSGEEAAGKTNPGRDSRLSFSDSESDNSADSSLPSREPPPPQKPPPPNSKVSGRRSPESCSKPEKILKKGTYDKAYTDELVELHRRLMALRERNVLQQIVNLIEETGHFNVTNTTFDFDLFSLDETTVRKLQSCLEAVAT
Briefly: MLLT1 degradation assay in MV4-11 cells (JESS chemiluminescent detection), three concentrations, 24 h. The settings on record: with respect to DMSO control. The class given is cell-based. The method, boiled down:
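MV4-11 cells treated 24 h at 37° C, 5% CO2 with 1000, 100 and 10 nM compound (0.1% DMSO final). MLLT1 quantified by automated capillary chemiluminescent immunodetection; band peak area expressed as % degradation relative to DMSO control.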

A further assay deals with MV4-11 cells. Briefly: MV4-11 cellular proliferative assay, Assay Format B (CTG 2.0, 168 h). Type of assay: cell-based. As to conditions: Homo sapiens, 168 h (7 days), CTG 2.0, read-out: IC50 (MV4-11 cellular proliferative assay, Assay format B). How it is done: MV4-11 cells at a confluency of ~50-80% was used for cell growth assay. 600 cells/well in a 384-well opaque cell culture plate (6007680; Perkin Elmer) were seeded in 40 μL of complete medium (IMDM+10% FBS+1X Penicillin-Streptomycin). Cells were incubated overnight at 37° C., 5% CO2. 10 mM DMSO stocks were prepared, cells were treated with 10 concentrations of test compounds starting from 1 uM or 100 nM, 3-fold dilution in 10 uL (5×concentration) of complete medium. Final DMSO concentration was 0.3%. Culture plates were centrifuged at 40×g, 30s. Cells were incubated with compounds for 168 h (7 days). After 7 days, 20 uL CTG 2.0 reagent (G9242; Promega) was added per well and luminescence reading was taken in Envision Xcite 2105 multimode plate reader. Data was analyzed in GraphPad Prism 10.0 and data was shown as % viability with respect to DMSO control and dose-response curves were generated using four parameter logistic regression. Assay quality was determined by z-factor calculation using positive and negative controls.

With `CN1CCC[C@@H]1c1cc2cnc(NC(=O)c3ccc(OCC#Cc4cccc5c4CN(C4CCC(=O)NC4=O)C5=O)nc3)cc2[nH]1` (stereo partly drawn) [Example 2, 6-((3-(2-(2,6-dioxopiperidin-3-yl)-1-oxoisoindolin-4-yl)prop-2-yn-1-yl)oxy)-N-(2-((R)-1-methylpyrrolidin-2-yl)-1H-pyrrolo[3,2-c]pyridin-6-yl)nicotinamide], at MLLT1, the “MLLT1% Degradation @ 0.01 μM” value is “A (Category A: A ≥ 75% degradation)”, the “MLLT1% Degradation @ 0.1 μM” value is reported as “A (Category A: A ≥ 75% degradation)” and the “MLLT1% Degradation @ 1 μM” value is “A (Category A: A ≥ 75% degradation)”. For the same compound, in the assay on MV4-11 cells, the concentration for half-maximal inhibition (IC50) was at most 100 nM.
In the case of `C[C@H]1CN(CC2CCN(c3cccc4c3CN(C3CCC(=O)NC3=O)C4=O)CC2)CCN1c1ccc(C(=O)Nc2cc3[nH]c([C@H]4CCCN4C)cc3cn2)cc1` (stereo partly drawn) [Example 132, 4-((2S)-4-((1-(2-(2,6-dioxopiperidin-3-yl)-1-oxoisoindolin-4-yl)piperidin-4-yl)methyl)-2-methylpiperazin-1-yl)-N-(2-((R)-1-methylpyrrolidin-2-yl)-1H-pyrrolo[3,2-c]pyridin-6-yl)benzamide], on MLLT1, the “MLLT1% Degradation @ 0.01 μM” value is “B (Category B: 50% ≤ B < 75% degradation)”, the “MLLT1% Degradation @ 0.1 μM” value is reported as “A (Category A: A ≥ 75% degradation)” and the “MLLT1% Degradation @ 1 μM” value is “B (Category B: 50% ≤ B < 75% degradation)”. In addition, the concentration for half-maximal inhibition (IC50) with MV4-11 cells is at most 100 nM.
As for `CN1CCC[C@@H]1c1cc2cnc(NC(=O)c3ccc(N4CCC(CC#Cc5cccc6c5CN(C5CCC(=O)NC5=O)C6=O)CC4)nc3)cc2[nH]1` (stereo partly drawn) [Example 16, 6-(4-(3-(2-(2,6-dioxopiperidin-3-yl)-1-oxoisoindolin-4-yl)prop-2-yn-1-yl)piperidin-1-yl)-N-(2-((R)-1-methylpyrrolidin-2-yl)-1H-pyrrolo[3,2-c]pyridin-6-yl)nicotinamide], at MLLT1, the “MLLT1% Degradation @ 0.01 μM” value is given as “A (Category A: A ≥ 75% degradation)”, the “MLLT1% Degradation @ 0.1 μM” value is reported as “A (Category A: A ≥ 75% degradation)” and the “MLLT1% Degradation @ 1 μM” value was “B (Category B: 50% ≤ B < 75% degradation)”. The IC50 in the assay with MV4-11 cells is at most 100 nM.
Turning to `CN1CCC[C@@H]1c1cc2cnc(NC(=O)c3cccc(CCCC#Cc4cccc5c4CN(C4CCC(=O)NC4=O)C5=O)c3)cc2[nH]1` (stereo partly drawn) [Example 95, 3-(5-(2-(2,6-dioxopiperidin-3-yl)-1-oxoisoindolin-4-yl)pent-4-yn-1-yl)-N-(2-((R)-1-methylpyrrolidin-2-yl)-1H-pyrrolo[3,2-c]pyridin-6-yl)benzamide], at MLLT1, the “MLLT1% Degradation @ 0.01 μM” value is “A (Category A: A ≥ 75% degradation)”, the “MLLT1% Degradation @ 0.1 μM” value is on record as “A (Category A: A ≥ 75% degradation)” and the “MLLT1% Degradation @ 1 μM” value was “A (Category A: A ≥ 75% degradation)”. Further, the half-maximal inhibitory concentration (IC50) in the assay on MV4-11 cells is at most 100 nM.
Turning to `CN1CCC[C@@H]1c1cc2cnc(NC(=O)c3ccc(OCCC4CCN(c5cccc6c5CN(C5CCC(=O)NC5=O)C6=O)CC4)c(F)c3F)cc2[nH]1` (stereo partly drawn) [Example 231, 4-(2-(1-(2-(2,6-dioxopiperidin-3-yl)-1-oxoisoindolin-4-yl)piperidin-4-yl)ethoxy)-2,3-difluoro-N-(2-((R)-1-methylpyrrolidin-2-yl)-1H-pyrrolo[3,2-c]pyridin-6-yl)benzamide], on MLLT1, the “MLLT1% Degradation @ 0.01 μM” value is recorded as “A (Category A: A ≥ 75% degradation)”, the “MLLT1% Degradation @ 0.1 μM” value is reported as “A (Category A: A ≥ 75% degradation)” and the “MLLT1% Degradation @ 1 μM” value is “A (Category A: A ≥ 75% degradation)”. In addition, the IC50 in the assay on MV4-11 cells is at most 100 nM.
Consider `CN1CCC[C@@H]1c1cc2cnc(NC(=O)c3ccc(CCCCC#Cc4cccc5c4CN([C@H]4CCC(=O)NC4=O)C5=O)cc3)cc2[nH]1` (relative stereo) [Example 104, 4-(6-(2-((rel-S)-2,6-dioxopiperidin-3-yl)-1-oxoisoindolin-4-yl)hex-5-yn-1-yl)-N-(2-((R)-1-methylpyrrolidin-2-yl)-1H-pyrrolo[3,2-c]pyridin-6-yl)benzamide], for which the 50% inhibitory concentration (IC50) with MV4-11 cells was at most 100 nM.
As to `Cc1ncsc1-c1ccc(CNC(=O)[C@@H]2C[C@@H](O)CN2C(=O)[C@@H](NC(=O)CCCCCCCCCCNC(=O)c2ccc(C(=O)Nc3cc4[nH]c([C@H]5CCCN5C)cc4cn3)cc2)C(C)(C)C)cc1` [Example 69, (2S,4R)-1-[(2S)-3,3-dimethyl-2-(11-{[4-({2-[(2R)-1-methylpyrrolidin-2-yl]-1H-pyrrolo[3,2-c]pyridin-6-yl}carbamoyl)phenyl]formamido}undecanamido)butanoyl]-4-hydroxy-N-{[4-(4-methyl-1,3-thiazol-5-yl)phenyl]methyl}pyrrolidine-2-carboxamide], on MLLT1, the “MLLT1% Degradation @ 0.01 μM” value is “C (Category C: 25% ≤ C < 50% degradation)”, the “MLLT1% Degradation @ 0.1 μM” value is listed as “C (Category C: 25% ≤ C < 50% degradation)” and the “MLLT1% Degradation @ 1 μM” value is recorded as “C (Category C: 25% ≤ C < 50% degradation)”.
With `CN1CCC[C@@H]1c1cc2cnc(NC(=O)c3ccc(CCCC#Cc4cccc(C(=O)N[C@H]5CCC(=O)NC5=O)c4F)cc3)cc2[nH]1` [Example 219, N—((S)-2,6-dioxopiperidin-3-yl)-2-fluoro-3-(5-(4-((2-((R)-1-methylpyrrolidin-2-yl)-1H-pyrrolo[3,2-c]pyridin-6-yl)carbamoyl)phenyl)pent-1-yn-1-yl)benzamide], on MLLT1, the “MLLT1% Degradation @ 0.01 μM” value is listed as “A (Category A: A ≥ 75% degradation)”, the “MLLT1% Degradation @ 0.1 μM” value is reported as “A (Category A: A ≥ 75% degradation)” and the “MLLT1% Degradation @ 1 μM” value is “B (Category B: 50% ≤ B < 75% degradation)”.
As for `CN1CCC[C@@H]1c1cc2cnc(NC(=O)CCCCCCCCNc3cccc4c3C(=O)N(C3CCC(=O)NC3=O)C4=O)cc2[nH]1` (stereo partly drawn) [Example 30, 9-{[2-(2,6-dioxopiperidin-3-yl)-1,3-dioxoisoindol-4-yl]amino}-N-{2-[(2R)-1-methylpyrrolidin-2-yl]-1H-pyrrolo[3,2-c]pyridin-6-yl}nonanamide], at MLLT1, the “MLLT1% Degradation @ 0.01 μM” value was “C (Category C: 25% ≤ C < 50% degradation)”, the “MLLT1% Degradation @ 0.1 μM” value is reported as “B (Category B: 50% ≤ B < 75% degradation)” and the “MLLT1% Degradation @ 1 μM” value was “A (Category A: A ≥ 75% degradation)”.
For the compound `CN1CCC[C@@H]1c1[nH]c2cc(NC(=O)c3ccc(OCCC4CCN(c5cccc6c5CN(C5CCC(=O)NC5=O)C6=O)CC4)c(F)c3)ncc2c1Cl` (stereo partly drawn) [Example 229, N-(3-chloro-2-((R)-1-methylpyrrolidin-2-yl)-1H-pyrrolo[3,2-c]pyridin-6-yl)-4-(2-(1-(2-(2,6-dioxopiperidin-3-yl)-1-oxoisoindolin-4-yl)piperidin-4-yl)ethoxy)-3-fluorobenzamide], on MLLT1, the “MLLT1% Degradation @ 0.01 μM” value is “A (Category A: A ≥ 75% degradation)”, the “MLLT1% Degradation @ 0.1 μM” value is listed as “A (Category A: A ≥ 75% degradation)” and the “MLLT1% Degradation @ 1 μM” value is reported as “A (Category A: A ≥ 75% degradation)”.
Regarding `CN1CCC[C@@H]1c1cc2cnc(NC(=O)c3ccc(CCCCC#Cc4cccc5c4CN([C@@H]4CCC(=O)NC4=O)C5=O)cc3)cc2[nH]1` (relative stereo) [Example 105, 4-(6-(2-((rel-R)-2,6-dioxopiperidin-3-yl)-1-oxoisoindolin-4-yl)hex-5-yn-1-yl)-N-(2-((R)-1-methylpyrrolidin-2-yl)-1H-pyrrolo[3,2-c]pyridin-6-yl)benzamide], the IC50 with MV4-11 cells is at most 100 nM.
Take `CN1CCC[C@@H]1c1cc2cnc(NC(=O)c3ccc(OCCN4CCC5(CC4)CCN(c4ccc6c(c4)C(=O)N(C4CCC(=O)NC4=O)C6=O)CC5)cc3)cc2[nH]1` (stereo partly drawn) [Example 166, 4-(2-(9-(2-(2,6-dioxopiperidin-3-yl)-1,3-dioxoisoindolin-5-yl)-3,9-diazaspiro[5.5]undecan-3-yl)ethoxy)-N-(2-((R)-1-methylpyrrolidin-2-yl)-1H-pyrrolo[3,2-c]pyridin-6-yl)benzamide]: on MLLT1, the “MLLT1% Degradation @ 0.01 μM” value is given as “C (Category C: 25% ≤ C < 50% degradation)”, the “MLLT1% Degradation @ 0.1 μM” value is “A (Category A: A ≥ 75% degradation)” and the “MLLT1% Degradation @ 1 μM” value was “A (Category A: A ≥ 75% degradation)”.
Turning to `CN1CCC[C@@H]1c1cc2cnc(NC(=O)c3ccc(OCCC4CCN(c5cccc6c5C(=O)N(C5CCC(=O)NC5=O)C6=O)CC4)nc3)cc2[nH]1` (stereo partly drawn) [Example 179, 6-(2-(1-(2-(2,6-dioxopiperidin-3-yl)-1,3-dioxoisoindolin-4-yl)piperidin-4-yl)ethoxy)-N-(2-((R)-1-methylpyrrolidin-2-yl)-1H-pyrrolo[3,2-c]pyridin-6-yl)nicotinamide], on MLLT1, the “MLLT1% Degradation @ 0.01 μM” value is given as “B (Category B: 50% ≤ B < 75% degradation)”, the “MLLT1% Degradation @ 0.1 μM” value is given as “B (Category B: 50% ≤ B < 75% degradation)” and the “MLLT1% Degradation @ 1 μM” value is “B (Category B: 50% ≤ B < 75% degradation)”.
